“Also recorded” adds a separate entry of the source.
Tested on: lashes and adjacent hairs of patients having glaucoma
Test: Observation of lashes and adjacent hairs in glaucoma patients treated in only one eye
Type: in vivo, human
Details: glaucoma patients taking the drug in only one eye; gross inspection and slit lamp biomicroscope
From the text: In the course of treating patients having glaucoma, treatment may only be appropriate in one eye. […] The lash appearance on the lids of the treated eyes would have appeared quite attractive if it represented a bilateral phenomenon. As a result of its asymmetric nature, the long lashes on one side could be construed as disturbing from a cosmetic standpoint. A systemic examination was preformed as a result of the asymmetric phenomenon. It soon became apparent that this altered appearance was not an isolated finding. […] Definite differences could be identified to varying degrees in the lashes and adjacent hairs of all patients who were taking the drug on a unilateral basis for longer than 6 months.
The changes in the lashes were apparent on gross inspection in several patients once attention was focused on the issue. In those with light colored hair and lashes, the differences were only seen easily with the aid of the high magnification and lighting capabilities of the slit lamp biomicroscope. In the course of glaucoma follow-up examination, attention is generally immediately focused on the eye itself. As a result of the high power magnification needed only one eye is seen at a time and the eye is seen at a high enough power that the lashes are not in focus. […]

`CCNC(=O)CCC/C=C\C[C@@H]1[C@@H](/C=C/[C@@H](O)CCc2ccccc2)[C@H](O)C[C@@H]1O` [bimatoprost] was tested, and the “lash / hair growth in treated eye versus non-treated eye” value was “longer, thicker, and fuller in the treated eye than in the non-treated eye; also recorded: hair growth is stimulated”.

From patent US7964596B2, “Therapeutic compounds” (Allergan, Inc., priority 2008, dated 2011)
